Assay results as given in patent publication US6617338B2, “Orally administrable acid stable antiulcer benzimidazole derivatives” (priority 2000, dated 2003).

Tested on: pylorus ligated rats
Experiment: Pylorus ligated rats: total acid output and ulcer index
Format: in vivo, Wistar albino rats
Details: 0.4 mg/kg × 1 day p.o., mean ± SEM
Description: The distribution of animals in groups, the sequence of trials and the treatment allotted to each group were randomized. Gastric ulceration was produced by pylorus ligation and absolute ethanol administration. In these methods, animals were fasted for 36 hrs before the experiment. Coprohagy was prevented by fasting the animals in cages with grating as the floor. […] The animals were sacrificed using anaesthetic ether after the completion of experiments; the stomachs were removed, opened along the greater curvature, washed with saline and examined with 6.4* (cm diameter) binocular magnifier. Lesions were assessed by two observers unaware of the experimental protocol. […] They were administered per orally, 30 minutes after the drug treatment the animals were subjected to any ulcerogenic procedure. Rats were anesthetized with anaesthetic ether and the portion of abdomen was opened by a small midline incision below the xiphoid process. Pylorus portion of the stomach was lifted and ligated. […] The stomach was isolated from the body and its contents were collected, measured and centrifuged. […] Immediately after the removal of the contents from the stomach, they were examined for lesions in the stomach portion which were measured and expressed in terms of ulcer index calculated as the total ulcerated area divided by the total mucosal area.

“5-methoxy-2[(4-methoxy-3,5-dimethyl-2-pyridinyl)sulfinyl]-1H-benzimidazole [Omeprazole]” showed a Total acid output (pylorus ligation 19 hours) of 72.93 ± 7.17 meq/L/100 g and a Ulcer index (total ulcerated area divided by total mucosal area) of 0.88 ± 0.10.
